The source of these data is US11278555B2, “Combinational therapies for treatment of cancer comprising a bacteriochlorophyll derivative” (Yeda Research and Development Co. Ltd., priority 2016, dated 2022).

For assay [1], the system named is 4T1-luc tumors at the mammary pad. The experiment in a line: WST11 VTP combined with CTX or Gemzar in mice bearing 4T1-luc tumors in the mammary pad (Scheme 5). Type of assay: in vivo, Balb/C mice. As to conditions: VTP alone, 9 mg/kg WST11, 200 mW/cm^2 for 15 min. How it is done: (§1) • (i) Bacteriochlorophyll Derivatives—The Bchl derivatives and RGD-conjugates thereof were provided by Steba Biotech (Rehovot, Israel). […] Concentration was verified by spectrophotometric measurement. STL-7012 was provided as dipotassium salt. Working solution was prepared by dissolving STL-7012 K^+ salt in 5% mannitol solution (1 mg/ml). […] WST11 was supplied as a powder and kept in the dark at −20° C. Stock was prepared by dissolving WST11 in DDW containing 5% glucose and 0.67% mannitol, aliquoted and lyophilized. Working solution was reconstituted with DDW and the concentration of solution was confirmed spectrophotometrically. Alternatively, Clinical WST11 (batch: P00611, and 10-130611) was supplied as lyophilized formulation. Material was dissolved in 5% dextrose, aliquoted and stored at −20° C. […] Whole body imaging of luciferase-transfected tumors and metastases were recorded five minutes following 75 mg Kg^−1 intraperitoneal (i.p.) injection of D-luciferin with respective filter sets. • (vi) PDT treatment protocol: 4T1-Luc cells were grafted in the mammary pad of Balb/c mice. […]

The next assay deals with MB49 tumors. Put plainly: WST11 VTP, Gemzar and combination in immune compromised Rag1 KO versus WT mice bearing MB49 tumors. In kind it is in vivo. The note with it: Kaplan-Meier. How it is done: as §1

As to `CCC1c2cc3[n-]c(c(CC(=O)OC)c4nc(cc5[n-]c(cc(n2)C1C)c(C(C)=O)c5C)C(C)C4CCC(=O)[O-])c(C(=O)NCCS(=O)(=O)[O-])c3C.[K+].[K+].[Pd+2]` (centres unmarked) [WST11, Palladium 3^1-oxo-15-methoxycarbonylmethyl-rhodobacteriochlorin 13^1-(2-sulfoethyl) amide dipotassium salt], the survival entry in assay [1] was “very limited survival”. For the same compound, the “overall survival of immune compromised (Rag1 KO) mice compared with WT mice” value in the assay with MB49 tumors is “statistically significant decrease”.
